Assay results published in ChEMBL document CHEMBL1201862, “PubChem BioAssay data set” (2004).
Activity calls are given as the source filed them.

Columns and labels:
Hexokinase = biological target: T1, Hexokinase (Trypanosoma brucei, UniProt Q38C41); experiment: Confirmation assay for inhibitors of Trypanosoma brucei hexokinase 1-Analogue-first series. [Related pubchem assays (depositor defined):AID1430, AID1632, AID2516, AID2560, AID2579, AID2600, AID449725, AID492951]; format: functional
T1 sequence (Q38C41 whole entry): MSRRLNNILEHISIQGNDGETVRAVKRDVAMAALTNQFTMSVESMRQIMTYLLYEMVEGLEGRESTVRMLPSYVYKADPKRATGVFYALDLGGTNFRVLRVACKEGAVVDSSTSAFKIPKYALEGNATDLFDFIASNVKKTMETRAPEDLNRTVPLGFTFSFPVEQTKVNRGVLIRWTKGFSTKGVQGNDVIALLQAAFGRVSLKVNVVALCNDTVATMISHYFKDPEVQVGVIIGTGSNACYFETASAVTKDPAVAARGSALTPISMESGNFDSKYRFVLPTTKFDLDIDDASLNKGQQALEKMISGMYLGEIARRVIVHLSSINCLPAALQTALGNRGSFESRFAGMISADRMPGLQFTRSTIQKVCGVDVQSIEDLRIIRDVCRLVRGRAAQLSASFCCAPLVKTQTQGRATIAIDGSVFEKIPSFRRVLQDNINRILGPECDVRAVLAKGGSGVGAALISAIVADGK

Cytochrome P450 3A4 = Cytochrome P450 3A4 (Homo sapiens, UniProt P08684); settings: Potency;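 note: confirmatory qHTS run detecting inhibitors and substrates of CYP3A4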
[1] = A cytotoxicity screen of small molecule inhibitors of the PhoP region in Salmonella typhi identified in the primary screen. [Related pubchem assays: 1850, 1864, 1985 ]; format: functional
[2] = viability of PTEN-deleted HCT116 cells – cell-based, HCT116 PTEN knockout, dose response (AID 1047); format: functional;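 note: HCT116 colon tumor cells with PTEN knocked out; cells exposed to compound for 60 hours before readout; potency for loss of cell viability measured by luminescence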
Beta-galactosidase = Beta-galactosidase (Escherichia coli, UniProt Q8VNN2); experiment: detection-enzyme interference by beta-gal modulators – biochemical, E. coli enzyme, set 3, artefact control for CCR6 antagonist project, dose response (AID 504712); format: functional
[3] = viability of HCT116 lacking mutant beta-catenin – cell-based, human colon tumor, dose response (AID 1045); format: functional;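 note: HCT116 colon tumor cells with beta catenin knocked out; cells exposed to compound for 60 hours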
SUMO-activating enzyme [4] = biological target: T2, SUMO-activating enzyme (Homo sapiens, UniProt Q9UBT2); experiment: blockers of SAE1/SAE2–UBC9 SUMO transfer – biochemical, HTRF, uHTS, primary screen (AID 2006); format: protein-complex assay
SUMO-activating enzyme [5] = biological target: T2, SUMO-activating enzyme; experiment: blockers of UBC9-mediated SUMO conjugation – biochemical, AlphaScreen, SUMOylation inhibitor project, confirmation (AID 2018); format: functional
Estrogen receptor = biological target: T3, Estrogen receptor (Homo sapiens, UniProt P03372);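 note: potency for inhibiting coactivator peptide recruitment to the receptor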
T3 sequence (P03372 whole entry): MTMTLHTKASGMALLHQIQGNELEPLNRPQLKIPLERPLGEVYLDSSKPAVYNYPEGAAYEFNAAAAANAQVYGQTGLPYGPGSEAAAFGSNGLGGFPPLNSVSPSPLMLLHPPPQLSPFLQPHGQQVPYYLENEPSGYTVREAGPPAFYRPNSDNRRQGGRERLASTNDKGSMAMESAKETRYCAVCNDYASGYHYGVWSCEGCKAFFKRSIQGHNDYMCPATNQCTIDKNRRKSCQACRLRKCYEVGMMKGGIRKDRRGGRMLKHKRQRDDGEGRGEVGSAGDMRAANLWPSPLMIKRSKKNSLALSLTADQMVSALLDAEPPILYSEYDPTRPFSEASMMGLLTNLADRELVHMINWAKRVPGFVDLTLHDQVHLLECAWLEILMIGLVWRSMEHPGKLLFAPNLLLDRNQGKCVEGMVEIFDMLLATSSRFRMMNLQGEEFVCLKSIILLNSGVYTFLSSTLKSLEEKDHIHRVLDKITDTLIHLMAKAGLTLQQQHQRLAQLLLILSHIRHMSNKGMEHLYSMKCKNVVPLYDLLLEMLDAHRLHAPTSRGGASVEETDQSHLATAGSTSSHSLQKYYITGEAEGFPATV

[6] = biological target: DNA dC->dU-editing enzyme APOBEC-3G (Homo sapiens, UniProt Q9HC16); experiment: Dose Response confirmation of small molecule APOBEC3G DNA Deaminase Inhibitors via a fluorescence-based single-stranded DNA deaminase assay. [Related pubchem assays (depositor defined):AID493012, AID493028]; format: functional
[7] = biological target: DNA dC->dU-editing enzyme APOBEC-3A (Homo sapiens, UniProt P31941); experiment: A3A deaminase inhibition for selectivity – biochemical, dose response (AID 504722); format: functional
Bcl-2-like protein 10 = biological target: T4, Bcl-2-like protein 10 (Homo sapiens, UniProt Q9HD36); experiment: Bcl-B/TR3 peptide binding disruption – biochemical, fluorescence polarization, FITC-TR3 peptide, selectivity assay for Bfl-1 inhibitor project, primary screen (AID 748);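 note: fluorescence polarization from a fluorescein-labelled TR3 peptide binding purified Bcl-B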
T4 sequence (Q9HD36 whole entry): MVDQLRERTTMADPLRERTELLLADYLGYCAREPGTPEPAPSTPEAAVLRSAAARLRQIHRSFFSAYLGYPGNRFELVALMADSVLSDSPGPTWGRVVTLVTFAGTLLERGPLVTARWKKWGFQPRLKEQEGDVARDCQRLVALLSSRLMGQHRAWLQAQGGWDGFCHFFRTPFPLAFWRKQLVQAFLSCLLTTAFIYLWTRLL

Genome polyprotein = Genome polyprotein (dengue virus type 2, UniProt P29990); experiment: flavivirus cap methylation enzyme inhibition – biochemical, confirmation dose response, primary screen (AID 588689); format: functional
[8] = biological target: FAD-linked sulfhydryl oxidase ALR (Homo sapiens, UniProt P55789); experiment: ALR-catalysed DTT oxidation blockers – biochemical, H2O2 detection, luminescence, cherry-pick, dose response (AID 493248)
[9] = biological target: T5, Acyl-homoserine lactone acylase PvdQ (Pseudomonas aeruginosa (strain LESB58), UniProt Q9I194); experiment: PvdQ acylase enzyme activity blockers – biochemical, fluorescence, plate reader and imaging, cherry-picks, dose response (AID 493231)
T5 sequence (Q9I194 whole entry): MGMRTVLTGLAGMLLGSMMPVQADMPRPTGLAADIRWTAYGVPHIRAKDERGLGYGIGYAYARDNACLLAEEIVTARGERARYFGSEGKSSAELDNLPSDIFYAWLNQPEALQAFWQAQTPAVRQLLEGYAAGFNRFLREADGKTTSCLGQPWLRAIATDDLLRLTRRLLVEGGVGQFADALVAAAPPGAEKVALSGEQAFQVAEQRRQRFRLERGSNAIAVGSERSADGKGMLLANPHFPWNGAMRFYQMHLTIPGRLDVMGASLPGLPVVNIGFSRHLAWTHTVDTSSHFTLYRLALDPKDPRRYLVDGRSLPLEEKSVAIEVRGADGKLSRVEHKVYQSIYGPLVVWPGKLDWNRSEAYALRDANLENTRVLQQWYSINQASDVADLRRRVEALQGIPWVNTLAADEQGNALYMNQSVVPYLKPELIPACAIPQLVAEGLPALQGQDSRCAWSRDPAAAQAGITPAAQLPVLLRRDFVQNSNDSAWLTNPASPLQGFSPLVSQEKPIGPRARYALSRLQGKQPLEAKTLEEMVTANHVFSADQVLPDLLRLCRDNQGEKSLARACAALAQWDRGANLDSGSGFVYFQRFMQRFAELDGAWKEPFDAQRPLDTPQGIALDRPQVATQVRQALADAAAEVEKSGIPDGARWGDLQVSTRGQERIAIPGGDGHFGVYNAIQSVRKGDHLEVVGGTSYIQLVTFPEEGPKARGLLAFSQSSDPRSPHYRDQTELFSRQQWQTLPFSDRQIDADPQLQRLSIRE

Nonstructural protein 1 = Nonstructural protein 1 (Influenza A virus, UniProt Q194T2); format: functional, Influenza A virus (A/California/07/2009(H1N1))
[10] = biological target: T6, Heat shock factor protein 1 (Mus musculus, UniProt P38532); experiment: decrease of HSF1-responsive luciferase luminescence – cell-based, NIH3T3, dose retest, confirmation (AID 2382); format: functional;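 note: NIH3T3 fibroblasts with HSF1-driven luciferase reporter stressed by proteasome inhibitor MG132; luminescence from HSF1-driven luciferase expression after 8 hours of MG132 stress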
T6 sequence (P38532 whole entry): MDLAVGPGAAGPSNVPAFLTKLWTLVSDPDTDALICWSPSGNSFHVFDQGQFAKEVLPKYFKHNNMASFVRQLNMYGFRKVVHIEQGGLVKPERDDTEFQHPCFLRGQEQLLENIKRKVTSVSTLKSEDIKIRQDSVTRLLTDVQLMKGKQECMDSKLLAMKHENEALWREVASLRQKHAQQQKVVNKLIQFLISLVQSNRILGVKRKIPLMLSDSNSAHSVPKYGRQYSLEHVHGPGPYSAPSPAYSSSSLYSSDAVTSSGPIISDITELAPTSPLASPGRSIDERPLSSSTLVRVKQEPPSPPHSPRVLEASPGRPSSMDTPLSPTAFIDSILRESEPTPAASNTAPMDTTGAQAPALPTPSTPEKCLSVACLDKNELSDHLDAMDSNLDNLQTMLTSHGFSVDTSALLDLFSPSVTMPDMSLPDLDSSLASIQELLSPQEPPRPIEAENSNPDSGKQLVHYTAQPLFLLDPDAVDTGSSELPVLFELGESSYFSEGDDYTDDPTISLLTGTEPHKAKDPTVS

Cytochrome P450 3A4, sequence (P08684 whole entry): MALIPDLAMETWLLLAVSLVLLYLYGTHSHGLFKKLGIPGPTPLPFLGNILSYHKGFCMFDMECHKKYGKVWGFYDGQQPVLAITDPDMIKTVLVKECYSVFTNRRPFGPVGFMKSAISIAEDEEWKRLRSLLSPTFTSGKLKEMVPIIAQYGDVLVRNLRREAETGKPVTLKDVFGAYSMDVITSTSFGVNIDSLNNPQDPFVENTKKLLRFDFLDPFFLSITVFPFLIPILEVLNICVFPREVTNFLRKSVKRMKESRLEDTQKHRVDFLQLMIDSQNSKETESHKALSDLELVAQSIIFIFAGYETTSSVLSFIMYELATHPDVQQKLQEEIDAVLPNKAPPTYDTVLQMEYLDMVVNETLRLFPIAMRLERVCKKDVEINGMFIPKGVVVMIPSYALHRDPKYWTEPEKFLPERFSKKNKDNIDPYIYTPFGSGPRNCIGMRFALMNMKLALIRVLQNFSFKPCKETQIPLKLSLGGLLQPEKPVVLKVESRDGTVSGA
T2 sequence (Q9UBE0 whole entry): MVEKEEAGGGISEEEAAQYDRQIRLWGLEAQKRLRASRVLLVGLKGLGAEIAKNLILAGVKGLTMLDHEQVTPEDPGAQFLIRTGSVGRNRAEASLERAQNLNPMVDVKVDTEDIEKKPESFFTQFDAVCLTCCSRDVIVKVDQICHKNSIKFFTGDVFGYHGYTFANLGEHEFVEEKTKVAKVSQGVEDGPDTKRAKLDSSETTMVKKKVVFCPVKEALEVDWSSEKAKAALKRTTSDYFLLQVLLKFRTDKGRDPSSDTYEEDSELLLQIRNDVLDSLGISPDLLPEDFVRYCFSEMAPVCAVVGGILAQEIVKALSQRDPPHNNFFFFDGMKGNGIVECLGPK
T2 sequence (Q9UBT2 whole entry): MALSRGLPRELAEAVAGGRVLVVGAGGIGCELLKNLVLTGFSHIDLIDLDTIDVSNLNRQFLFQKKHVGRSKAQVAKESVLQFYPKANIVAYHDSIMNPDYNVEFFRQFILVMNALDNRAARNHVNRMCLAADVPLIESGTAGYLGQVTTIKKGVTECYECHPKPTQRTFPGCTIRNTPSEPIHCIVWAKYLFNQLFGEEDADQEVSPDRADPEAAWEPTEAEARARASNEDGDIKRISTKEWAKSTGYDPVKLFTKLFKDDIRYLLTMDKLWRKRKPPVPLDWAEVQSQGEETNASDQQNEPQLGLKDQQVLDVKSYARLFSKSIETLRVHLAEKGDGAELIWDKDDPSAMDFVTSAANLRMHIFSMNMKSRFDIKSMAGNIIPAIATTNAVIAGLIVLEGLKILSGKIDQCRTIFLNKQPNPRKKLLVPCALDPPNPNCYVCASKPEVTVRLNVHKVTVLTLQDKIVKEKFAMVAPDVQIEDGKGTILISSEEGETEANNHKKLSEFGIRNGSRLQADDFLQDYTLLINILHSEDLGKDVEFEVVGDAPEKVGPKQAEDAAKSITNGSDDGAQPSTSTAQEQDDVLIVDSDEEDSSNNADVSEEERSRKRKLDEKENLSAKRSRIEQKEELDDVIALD
Beta-galactosidase, sequence (Q8VNN2 whole entry): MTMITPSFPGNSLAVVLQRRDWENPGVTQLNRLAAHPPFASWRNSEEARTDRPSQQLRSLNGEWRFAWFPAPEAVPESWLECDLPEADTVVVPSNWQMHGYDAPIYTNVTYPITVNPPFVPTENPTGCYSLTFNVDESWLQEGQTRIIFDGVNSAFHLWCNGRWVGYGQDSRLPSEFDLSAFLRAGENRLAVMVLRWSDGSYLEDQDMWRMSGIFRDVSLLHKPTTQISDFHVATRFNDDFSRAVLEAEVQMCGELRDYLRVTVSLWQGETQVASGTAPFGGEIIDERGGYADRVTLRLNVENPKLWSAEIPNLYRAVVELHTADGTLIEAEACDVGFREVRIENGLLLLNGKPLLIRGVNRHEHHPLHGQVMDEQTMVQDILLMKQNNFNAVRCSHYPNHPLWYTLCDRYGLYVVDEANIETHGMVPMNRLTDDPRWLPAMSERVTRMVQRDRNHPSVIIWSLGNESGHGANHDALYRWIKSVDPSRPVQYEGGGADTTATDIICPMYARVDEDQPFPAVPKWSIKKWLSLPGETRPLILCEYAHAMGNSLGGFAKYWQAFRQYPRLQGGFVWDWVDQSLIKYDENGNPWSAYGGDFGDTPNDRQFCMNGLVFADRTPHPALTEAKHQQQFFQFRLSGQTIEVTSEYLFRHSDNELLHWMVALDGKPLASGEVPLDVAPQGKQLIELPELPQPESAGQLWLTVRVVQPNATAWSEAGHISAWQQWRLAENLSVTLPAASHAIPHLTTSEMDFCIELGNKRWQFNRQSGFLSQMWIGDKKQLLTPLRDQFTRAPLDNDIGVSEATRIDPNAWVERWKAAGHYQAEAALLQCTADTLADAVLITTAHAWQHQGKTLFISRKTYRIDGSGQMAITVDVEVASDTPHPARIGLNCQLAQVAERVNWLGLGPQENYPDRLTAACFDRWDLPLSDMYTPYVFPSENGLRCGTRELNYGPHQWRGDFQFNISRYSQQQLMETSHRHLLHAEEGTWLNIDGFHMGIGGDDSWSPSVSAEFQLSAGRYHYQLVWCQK
Nonstructural protein 1, sequence (Q194T2 whole entry): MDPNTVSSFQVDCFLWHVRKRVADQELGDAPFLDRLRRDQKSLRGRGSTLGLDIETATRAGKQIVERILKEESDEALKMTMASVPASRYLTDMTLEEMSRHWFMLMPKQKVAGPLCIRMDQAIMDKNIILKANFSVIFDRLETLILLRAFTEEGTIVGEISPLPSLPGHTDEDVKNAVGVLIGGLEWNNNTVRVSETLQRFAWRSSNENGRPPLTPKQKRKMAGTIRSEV
Genome polyprotein, sequence (P29990 2492-3391 limits assumed): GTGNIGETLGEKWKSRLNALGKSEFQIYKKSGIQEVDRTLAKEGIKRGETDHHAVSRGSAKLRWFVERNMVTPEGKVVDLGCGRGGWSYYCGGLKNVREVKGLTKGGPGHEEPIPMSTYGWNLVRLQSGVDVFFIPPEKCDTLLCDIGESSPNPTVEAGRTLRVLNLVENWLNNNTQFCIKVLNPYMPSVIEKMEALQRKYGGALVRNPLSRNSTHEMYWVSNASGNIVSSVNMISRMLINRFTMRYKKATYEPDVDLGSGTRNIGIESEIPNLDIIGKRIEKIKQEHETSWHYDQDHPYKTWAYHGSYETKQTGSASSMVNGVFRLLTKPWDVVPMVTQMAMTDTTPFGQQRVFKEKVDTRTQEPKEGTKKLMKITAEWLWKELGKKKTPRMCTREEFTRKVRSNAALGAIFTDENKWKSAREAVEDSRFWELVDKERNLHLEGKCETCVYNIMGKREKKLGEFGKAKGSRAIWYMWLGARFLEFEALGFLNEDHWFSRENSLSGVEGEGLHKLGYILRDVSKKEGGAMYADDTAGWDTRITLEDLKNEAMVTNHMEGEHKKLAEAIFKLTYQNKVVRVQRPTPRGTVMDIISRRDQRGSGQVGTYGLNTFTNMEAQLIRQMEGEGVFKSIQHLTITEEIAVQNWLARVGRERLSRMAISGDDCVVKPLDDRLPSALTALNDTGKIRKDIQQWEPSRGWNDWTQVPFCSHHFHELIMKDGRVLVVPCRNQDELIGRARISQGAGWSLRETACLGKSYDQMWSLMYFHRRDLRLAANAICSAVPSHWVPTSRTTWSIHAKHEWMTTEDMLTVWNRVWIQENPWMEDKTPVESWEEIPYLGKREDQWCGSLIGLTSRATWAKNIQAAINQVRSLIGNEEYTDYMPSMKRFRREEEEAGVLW
FAD-linked sulfhydryl oxidase ALR, sequence (P55789 whole entry): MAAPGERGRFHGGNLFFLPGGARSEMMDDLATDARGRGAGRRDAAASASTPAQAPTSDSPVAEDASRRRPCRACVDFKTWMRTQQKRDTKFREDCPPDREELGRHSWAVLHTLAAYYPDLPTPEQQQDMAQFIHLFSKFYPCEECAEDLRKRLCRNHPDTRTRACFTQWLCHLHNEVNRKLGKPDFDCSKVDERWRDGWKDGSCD
DNA dC->dU-editing enzyme APOBEC-3G, sequence (Q9HC16 whole entry): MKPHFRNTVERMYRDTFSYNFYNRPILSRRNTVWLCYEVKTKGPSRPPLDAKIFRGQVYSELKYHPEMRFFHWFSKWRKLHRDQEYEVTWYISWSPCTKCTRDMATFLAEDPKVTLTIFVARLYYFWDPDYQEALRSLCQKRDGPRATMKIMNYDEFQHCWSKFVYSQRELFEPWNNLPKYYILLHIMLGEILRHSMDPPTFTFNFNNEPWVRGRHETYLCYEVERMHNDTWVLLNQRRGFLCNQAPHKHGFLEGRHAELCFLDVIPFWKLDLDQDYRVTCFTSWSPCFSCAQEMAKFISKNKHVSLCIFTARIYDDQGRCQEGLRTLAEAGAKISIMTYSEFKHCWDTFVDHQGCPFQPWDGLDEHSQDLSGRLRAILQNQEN
DNA dC->dU-editing enzyme APOBEC-3A, sequence (P31941 whole entry): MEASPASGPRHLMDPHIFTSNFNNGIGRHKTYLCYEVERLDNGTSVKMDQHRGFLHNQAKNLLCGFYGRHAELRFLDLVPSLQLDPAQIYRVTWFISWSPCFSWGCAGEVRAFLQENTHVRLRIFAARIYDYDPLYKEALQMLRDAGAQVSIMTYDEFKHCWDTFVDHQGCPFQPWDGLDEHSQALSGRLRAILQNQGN

For `CC(C)(C)c1ccc(C(=O)Nc2cc(Cl)c(F)cc2C(=O)O)cc1`, the IC50 (Hexokinase) was 2.79 µM (active).

With `c1ccc(C2[C@H]3CN(CC4CCCCC4)[C@H](c4ccccc4)C34CC2(c2ccccc2)C4)cc1` (stereo partly specified) the AC50 (Cytochrome P450 3A4) was 5.01 µM (inconclusive).

In the case of `O=[N+]([O-])c1ccc2oc(C3CCCCC3)nc2c1`, the EC50 [1] was > 50 µM (active).

With `O=C(Cn1sc2ccccc2c1=O)Nc1ccccc1Br` the IC50 (Hexokinase) was 4.66 µM (active).

For `S=C(Nc1ccccc1)c1ccccn1`, the EC50 [2] was 32.5 µM (active), the IC50 (Beta-galactosidase) was > 66.6 µM (inactive) and the EC50 [3] was 32.8 µM (active).

In the case of `N=c1c(S(=O)(=O)c2ccc(Br)cc2)cc2c(=O)n3ccccc3nc2n1Cc1ccco1`, the IC50 (SUMO-activating enzyme [4]) was 4.16 µM (active) and the IC50 (SUMO-activating enzyme [5]) was 3.92 µM (active).

With `CC1CC(C(F)(F)C(F)(F)F)n2nc(C(=O)O)cc2N1` (stereo unspecified) the IC50 (Estrogen receptor) was 19.9 µM (active).

With `Cc1ccc(/C=N/n2c(S)nnc2-c2ccco2)s1` the IC50 [6] was 1.55 µM (active) and the IC50 [7] was > 100 µM (inactive).

With `O=c1ccsn1-c1ccccc1` the IC50 (Hexokinase) was 13.5 µM (active).

For `COc1ccc(C2C=C(c3ccc(Br)cc3)Nc3nc(NS(C)(=O)=O)nn32)cc1` (stereo unspecified), the IC50 (Bcl-2-like protein 10) was > 1.56 µM (inactive).

In the case of `CCCn1c(C)nc2c(NC3CCCCC3)nc(C)nc21`, the AC50 (Cytochrome P450 3A4) was 12.6 µM (inconclusive).

In the case of `Cc1cccc(N/N=C/c2ccc(O)c(O)c2O)c1`, the EC50 [1] was > 50 µM (active), the IC50 (Genome polyprotein) was 32.6 µM (active) and the AC50 [8] was 1.36 µM (active).

For `CSC1=N/C(=C\C=C\c2cccs2)C(=O)S1`, the AC50 [9] was 3.5 µM (active), the IC50 (Nonstructural protein 1) was 69.4 µM (active) and the EC50 [10] was 0.853 µM (active).
